From patent publication US20120283207A1, “ANTIBACTERIAL AMINOGLYCOSIDE ANALOGS” (Achaogen, Inc., priority 2009, published 2012)
Values after ≈ are worked out from the molar mass of the structure shown.

Columns and labels:
E. coli ATCC 25922 = test: MIC assay, CLSI broth microdilution, AECO001; type: cell-based; details: Escherichia coli; AECO001 is ATCC25922; Mueller Hinton Broth, 35 C, 20 hours
Procedure: (§1) Minimum inhibitory concentrations (MIC) were determined by reference Clinical and Laboratory Standards Institute (CLSI) broth microdilution methods per M7-A7 [2006]. Quality control ranges utilizing E. coli ATCC 25922, P. aeruginosa ATCC 27853 and S. aureus ATCC 29213, and interpretive criteria for comparator agents were as published in CLSI M100-S17 [2007]. Briefly, serial two-fold dilutions of the test compounds were prepared at 2× concentration in Mueller Hinton Broth. The compound dilutions were mixed in 96-well assay plates in a 1:1 ratio with bacterial inoculum. The inoculum was prepared by suspension of a colony from an agar plate that was prepared the previous day. Bacteria were suspended in sterile saline and added to each assay plate to obtain a final concentration of 5×10^5 CFU/mL. The plates were incubated at 35 C for 20 hours in ambient air.

P. aeruginosa ATCC 27853 = test: MIC assay, CLSI broth microdilution, APAE001; type: cell-based; details: Pseudomonas aeruginosa; APAE001 is ATCC27853; Mueller Hinton Broth, 35 C, 20 hours
Procedure: as §1

| Compound | MIC (E. coli ATCC 25922) [µg/mL] | MIC (P. aeruginosa ATCC 27853) [µg/mL] |
| --- | --- | --- |
| NCC[C@H](O)C(=O)N[C@@H]1C[C@H](N)[C@@H](O[C@H]2OC(CN)=CC[C@H]2N)[C@H](O[C@@H]2O[C@H](CO)[C@@H](O[C@H]3O[C@@H](CN)[C@@H](O)[C@H](O)[C@H]3N)[C@H]2O)[C@H]1O [5/6, 1-(2(S)-hydroxy-4-amino-butyryl)-4′,5′-dehydro-3′-deoxy-neomycin] | ≤ 1 | ≤ 1 |
| NCC1O[C@H](O[C@H]2[C@@H](O)[C@H](O[C@@H]3[C@@H](O)[C@H](N)C[C@H](N)[C@H]3O[C@H]3OC(CO)=CC[C@H]3N)O[C@@H]2CO)[C@H](N)[C@@H](O)[C@@H]1O (stereo partly shown) [2/3, 4′,5′-dehydro-3′-deoxy-paromomycin] | > 16 | > 16 |
| CNCC1=CC[C@@H](N)[C@@H](O[C@H]2[C@H](O[C@@H]3O[C@H](CO)[C@@H](O[C@H]4OC(CN)[C@@H](O)[C@H](O)[C@H]4N)[C@H]3O)[C@@H](O)[C@H](N)C[C@@H]2N)O1 (stereo partly shown) [4/3, 6′-N-methyl-4′,5′-dehydro-3′-deoxy-neomycin] | 1 to 16 (≈ 1.68 to 26.9 µM) | 1 to 16 (≈ 1.68 to 26.9 µM) |
| CNCC1=C[C@H](O)[C@@H](N)[C@@H](O[C@H]2[C@H](O[C@@H]3O[C@H](CO)[C@@H](O[C@H]4OC(CN)[C@@H](O)[C@H](O)[C@H]4N)[C@H]3O)[C@@H](O)[C@H](N)C[C@@H]2N)O1 (stereo partly shown) [3/3, 6′-N-methyl-4′,5′-dehydro-neomycin] | 1 to 16 (≈ 1.64 to 26.2 µM) | ≤ 1 |
| NCC1=CC[C@@H](N)[C@@H](O[C@H]2[C@H](O[C@@H]3O[C@H](CO)[C@@H](O[C@H]4OC(CN)[C@@H](O)[C@H](O)[C@H]4N)[C@H]3O)[C@@H](O)[C@H](N)C[C@@H]2N)O1 (stereo partly shown) [1/10, 4′,5′-dehydro-3′-deoxy-neomycin] | 1 to 16 (≈ 1.72 to 27.6 µM) | ≤ 1 |
